# The supplement of paper PMC10307832
# Assays:
# Test in all cases: relative viability (nuclei count vs DMSO), 5 days (fraction); higher = more cells survive
# TGX 221 + Navitoclax = compound: CC1=CN2C(=O)C=C(N=C2C(=C1)C(C)NC3=CC=CC=C3)N4CCOCC4 [TGX 221] + CC1(C)CCC(c2ccc(Cl)cc2)=C(CN2CCN(c3ccc(C(=O)NS(=O)(=O)c4ccc(N[C@H](CCN5CCOCC5)CSc5ccccc5)c(S(=O)(=O)C(F)(F)F)c4)cc3)CC2)C1 [Navitoclax] (partner 0.5 µM)
# Procedure, shortened: (§1)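 Relative viability equals treated-well nuclei counts divided by vehicle-well nuclei counts. Counts came from 4× images of lung cancer cell lines grown in 1536-well plates for 5 days after pin-tool dosing on the day after seeding. Dosing used one drug alone or a fixed anchor-drug dose plus five library-drug doses (not always all listed) in √10 steps, and values are medians of duplicate plates.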
# TGX 221 + Alpelisib = compound: CC1=CN2C(=O)C=C(N=C2C(=C1)C(C)NC3=CC=CC=C3)N4CCOCC4 [TGX 221] + Cc1nc(NC(=O)N2CCC[C@H]2C(N)=O)sc1-c1ccnc(C(C)(C)C(F)(F)F)c1 [Alpelisib] (partner 2 µM)
# Procedure, shortened: as §1
# TGX 221 + Foretinib = compound: CC1=CN2C(=O)C=C(N=C2C(=C1)C(C)NC3=CC=CC=C3)N4CCOCC4 [TGX 221] + COc1cc2c(Oc3ccc(NC(=O)C4(C(=O)Nc5ccc(F)cc5)CC4)cc3F)ccnc2cc1OCCCN1CCOCC1 [Foretinib] (partner 0.25 µM)
# Procedure, shortened: as §1
# [1] = compound: O=C(CCCCCCNC(=O)c1cnc(N(c2ccccc2)c2ccccc2)nc1)NO [Ricolinostat] + CC(=O)Nc1cccc(-n2c(=O)n(C3CC3)c(=O)c3c(Nc4ccc(I)cc4F)n(C)c(=O)c(C)c32)c1 [Trametinib] (partner 0.02 µM)
# Procedure, shortened: as §1
Cell Line,relative viability (TGX 221 + Navitoclax; first compound 0.08 µM),relative viability (TGX 221 + Navitoclax; first compound 0.253 µM),relative viability (TGX 221 + Navitoclax; first compound 0.8 µM),relative viability (TGX 221 + Navitoclax; first compound 2.53 µM),relative viability (TGX 221 + Navitoclax; first compound 8 µM),relative viability (TGX 221 + Alpelisib; first compound 0.08 µM),relative viability (TGX 221 + Alpelisib; first compound 0.253 µM),relative viability (TGX 221 + Alpelisib; first compound 0.8 µM),relative viability (TGX 221 + Alpelisib; first compound 2.53 µM),relative viability (TGX 221 + Alpelisib; first compound 8 µM),relative viability (TGX 221 + Foretinib; first compound 0.08 µM),relative viability (TGX 221 + Foretinib; first compound 0.253 µM),relative viability (TGX 221 + Foretinib; first compound 0.8 µM),relative viability (TGX 221 + Foretinib; first compound 2.53 µM),relative viability (TGX 221 + Foretinib; first compound 8 µM),relative viability ([1]; first compound 0.08 µM),relative viability ([1]; first compound 0.253 µM),relative viability ([1]; first compound 0.8 µM),relative viability ([1]; first compound 2.53 µM)
NCI-H2023,0.987,0.965,0.988,0.925,0.758,0.599,0.452,0.524,0.311,0.268,0.879,0.584,0.797,0.724,0.445,0.51,0.637,0.558,0.536
NCI-H1944,0.981,1.02,1,0.943,0.841,0.77,0.713,0.554,0.488,0.422,0.844,0.819,0.873,0.746,0.612,0.46,0.469,0.442,0.407
LOU-NH91,0.705,0.647,0.707,0.681,0.544,0.69,0.706,0.682,0.697,0.575,0.766,0.922,0.945,0.907,0.781,,0.783,0.763,0.864
NCI-H2347,0.796,0.681,0.598,0.432,0.49,0.994,0.911,0.955,0.605,0.756,,0.879,0.769,0.622,0.49,0.298,0.304,0.276,0.459
CAL-12T,1.06,1.2,1.36,1.23,1.07,1.17,1.1,1.21,0.852,0.64,0.994,1.12,1.27,1.15,1.09,0.266,0.32,0.456,0.395
RERF-LC-KJ,,0.78,0.913,0.8,1.14,0.66,0.713,0.603,0.644,0.637,0.87,0.879,0.964,0.825,0.757,0.869,0.836,0.805,0.715
NCI-H1395,1.02,0.907,0.986,0.957,0.763,0.935,1.16,0.89,0.514,0.584,0.903,0.961,0.873,0.716,0.628,,0.957,1.08,1.2
COR-L 105,0.97,0.613,0.842,0.799,0.558,1.02,0.838,0.697,0.609,0.361,0.993,0.976,0.99,0.825,0.781,0.376,0.471,0.547,0.543
COR-L23,1.01,1.02,0.963,0.954,0.997,0.807,0.659,0.759,0.722,0.742,0.889,0.912,1.04,0.964,0.938,0.485,0.582,0.625,0.49
LXF-289,0.966,0.967,0.929,0.882,0.945,0.948,0.979,0.947,0.898,0.898,0.974,0.986,1,0.97,0.995,0.675,0.638,0.688,0.629
PC-14,0.951,1,0.961,1.01,0.926,1.01,0.822,0.817,0.919,0.857,1.04,0.953,0.934,1.06,0.858,0.733,0.789,0.666,0.417
EKVX,0.926,0.869,0.866,0.908,0.758,0.77,0.716,0.648,0.5,0.477,0.691,0.914,0.763,0.691,0.925,0.283,0.282,0.426,0.368
